The structures appear in SMILES notation. Where only a bound is given, the exact number is not on record here.

In one assay the test system is DLD-1 BRCA2(−/−) cells. Put plainly: Cell growth inhibition assay (CellTiter-Glo), DLD-1 BRCA2(−/−). In kind it is cell-based. The conditions noted are these: Homo sapiens, DLD-1, 168 h; 200 cells/well, 7 days, CellTiter Glo 2.0; read-out: DLD-1 BRCA2(−/−) pEC50 (converted). An outline of the steps: (§1)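 Cells seeded at 50 (DLD-1 parental), 200 (DLD-1 BRCA2−/−) or 500 (MDA-MB-436) per well with 1:3 serial compound dilutions, top final dose 10 or 30 μM. Grown 7 days at 37° C, 5% CO2; ATP-based CellTiter-Glo 2.0 viability, growth inhibition curve-fitted for IC50.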
In general terms: Cellular ATP, detected with luciferase, serves as a proxy for viable cell number.

Assay [1] relates to MDA-MB-436 (mutated BRCA1) cells. Briefly: Cell growth inhibition assay (CellTiter-Glo), MDA-MB-436. In kind it is cell-based. The settings on record: Homo sapiens, MDA-MB-436, 168 h, 500 cells/well, 7 days, CellTiter Glo 2.0; read-out: MDA-MB-436 pEC50 (converted). The essentials:
as §1

A further assay relates to DLD-1 parental cells. Put plainly: Cell growth inhibition assay (CellTiter-Glo), DLD-1 parental. In kind it is cell-based. The conditions noted are these: Homo sapiens, DLD-1, 168 h; 50 cells/well, 7 days, CellTiter Glo 2.0; read-out: DLD-1 parental pEC50 (converted). The method, then:
Cell proliferation was measured through the cell viability assay using DLD-1 BRCA2(−/−) and parental isogenic pair and MDA-MB-436 (mutated BRCA1) cell lines. The CellTiter-Glo (CTG) based cell viability assay is designed to determine the number of viable cells in the culture because of compound effect, by quantifying ATP, which indicates the presence of metabolically active cells.
DLD-1 BRCA2(−/−) and parental isogenic pair were cultured in RPMI 1640 supplemented with […] (FBS), and […] cells were cultured in DMEM supplemented with 10% FBS. Both were cultured at 37° C. with […]. Invention compounds were distributed to the 384 well plate (Corning, 3764) using Echo acoustic liquid handler to form a 1:3 serially diluted final concentration with top dose of 10 or 30 μM. The cells were seeded into the plate in the density of 50 cells/well (DLD-1 parental), 200 cells/well (DLD-1 BRCA2−/−), or 500 cells/well (MDA-MB-436). After a short spun, the cells were cultured in a well moisturized incubator at 37° C. with 5% CO2 for 7 days without disturbance. The cell viability was measured by CellTiter Glo 2.0 assay kit (Promega, G9243), and growth inhibition rate was calculated and plotted against final compound concentration, and the data were fitted in Xfit to generate IC50 values.

A further assay deals with T1, PARP2 (Homo sapiens, UniProt Q9UGN5).
T1 construct: made in house
T1 sequence (Q9UGN5 whole entry): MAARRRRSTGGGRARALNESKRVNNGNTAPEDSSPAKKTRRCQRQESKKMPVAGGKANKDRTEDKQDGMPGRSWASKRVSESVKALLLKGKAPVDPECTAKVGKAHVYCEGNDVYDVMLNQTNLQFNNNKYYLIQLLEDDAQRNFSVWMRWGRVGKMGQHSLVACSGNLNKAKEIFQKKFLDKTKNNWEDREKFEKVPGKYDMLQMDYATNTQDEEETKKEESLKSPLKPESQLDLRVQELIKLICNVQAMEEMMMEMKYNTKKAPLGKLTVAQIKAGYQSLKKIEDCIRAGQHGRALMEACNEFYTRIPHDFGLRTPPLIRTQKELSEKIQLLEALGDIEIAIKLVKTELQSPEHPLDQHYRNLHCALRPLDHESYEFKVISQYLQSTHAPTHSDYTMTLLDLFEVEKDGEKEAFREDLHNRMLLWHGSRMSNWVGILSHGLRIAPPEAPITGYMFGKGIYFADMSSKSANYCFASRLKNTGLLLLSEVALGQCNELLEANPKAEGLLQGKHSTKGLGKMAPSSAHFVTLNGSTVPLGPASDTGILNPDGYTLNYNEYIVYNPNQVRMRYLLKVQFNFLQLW
Put plainly: Biochemical fluorescent polarization (FP) assay, displacement of PARPi-FL, PARP2. The conditions noted are these: 20 nM protein, 3 nM PARPi-FL, 4 h at room temperature; read-out: FP PARP2 pIC50 (converted). It counts as binding.

For the next assay, the target named is T2, PARP1 (Homo sapiens, UniProt P09874).
T2 construct: made in house
T2 sequence (P09874 whole entry): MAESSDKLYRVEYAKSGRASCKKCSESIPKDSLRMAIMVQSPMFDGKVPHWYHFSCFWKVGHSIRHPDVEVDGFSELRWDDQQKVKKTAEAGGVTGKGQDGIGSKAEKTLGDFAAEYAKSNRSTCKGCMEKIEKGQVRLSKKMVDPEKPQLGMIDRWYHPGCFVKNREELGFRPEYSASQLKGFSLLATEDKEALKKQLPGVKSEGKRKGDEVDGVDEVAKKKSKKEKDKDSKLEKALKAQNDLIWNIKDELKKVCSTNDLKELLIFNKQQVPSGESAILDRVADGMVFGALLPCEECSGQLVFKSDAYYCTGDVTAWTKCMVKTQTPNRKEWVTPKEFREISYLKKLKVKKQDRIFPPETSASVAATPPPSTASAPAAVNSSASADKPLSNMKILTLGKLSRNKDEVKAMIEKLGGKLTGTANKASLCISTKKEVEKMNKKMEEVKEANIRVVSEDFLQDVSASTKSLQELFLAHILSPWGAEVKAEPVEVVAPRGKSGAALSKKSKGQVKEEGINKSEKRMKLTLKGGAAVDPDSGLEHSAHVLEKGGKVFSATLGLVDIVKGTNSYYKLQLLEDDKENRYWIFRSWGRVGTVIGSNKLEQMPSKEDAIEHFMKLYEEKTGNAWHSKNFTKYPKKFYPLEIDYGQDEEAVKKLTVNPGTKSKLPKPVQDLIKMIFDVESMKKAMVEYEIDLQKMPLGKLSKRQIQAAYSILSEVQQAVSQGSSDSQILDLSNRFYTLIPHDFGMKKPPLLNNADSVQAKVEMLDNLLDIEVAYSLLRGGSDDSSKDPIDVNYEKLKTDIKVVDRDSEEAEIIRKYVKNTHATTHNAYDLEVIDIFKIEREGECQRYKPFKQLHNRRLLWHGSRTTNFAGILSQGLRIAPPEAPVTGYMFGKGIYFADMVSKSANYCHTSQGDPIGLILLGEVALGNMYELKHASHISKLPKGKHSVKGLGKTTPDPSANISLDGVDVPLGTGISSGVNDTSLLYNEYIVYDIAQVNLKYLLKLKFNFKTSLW
Briefly: Biochemical fluorescent polarization (FP) assay, displacement of PARPi-FL, PARP1. It counts as binding. The settings on record: 20 nM protein, 3 nM PARPi-FL, 4 h at room temperature; read-out: FP PARP1 pIC50 (converted).

With `CCc1cc2ncc(CN3CCN(c4ccc(C#N)nc4)CC3)cc2[nH]c1=O` [Example 3, 5-{4-[(7-ethyl-6-oxo-5H-1,5-naphthyridin-3-yl)methyl]piperazin-1-yl}pyridine-2-carbonitrile], the EC50 in the assay on DLD-1 BRCA2(−/−) cells was 3.16 nM; in assay [1] it was 2.51 nM; in the assay with DLD-1 parental cells, > 31600 nM.
On to `Cc1cc2ncc(CN3CCN(c4ccc(C#N)cn4)CC3)cc2[nH]c1=O` [Example 6], for which the EC50 in the assay with DLD-1 BRCA2(−/−) cells was 2.51 nM; in assay [1], 2.51 nM; in the assay with DLD-1 parental cells it was > 31600 nM. For the same molecule, the IC50 was 5010 nM at PARP2 and 5.01 nM at PARP1.
For `N#Cc1ccc(N2CCN(Cc3cnc4cc(Cl)c(=O)[nH]c4c3)CC2)nc1` [Example 57], the values for the EC50 (in the assay on DLD-1 BRCA2(−/−) cells; in assay [1]; in the assay with DLD-1 parental cells) were 2.51 nM, 2 nM and 20000 nM, respectively. The figures for the IC50 at PARP2 and on PARP1 were 50100 nM and 5.01 nM, respectively.

(Values after patent publication US12384780B2, “PARP1 inhibitors and uses thereof” (XinThera, Inc., priority 2022, dated 2025).)
